The values below come from patent US7674801B2 (AstraZeneca AB, priority 2006, dated 2010).

Values after ≈ are worked out from the molar mass of the structure shown.

For one experiment, the target named is S. aureus (SAU) GyrB ATPase (Staphylococcus aureus, UniProt P0A0K8). Put plainly: S. aureus GyrB ATPase inhibition, ammonium molybdate/malachite green phosphate detection assay. The format is biochemical. Particulars: compound concentration 5 μM (values marked *). In outline: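 E. coli GyrA and S. aureus GyrB (1.25 nM each) with 500 μM ATP and 5 μg/ml sheared salmon sperm DNA in 50 mM Hepes pH 7.5, 8.0 mM MgCl2. Released phosphate detected with ammonium molybdate/malachite green at 650 nm; 2% DMSO as 0% and 2 μM novobiocin as 100% inhibition; IC50 from 10 concentrations.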
Chain of S. aureus (SAU) GyrB ATPase (P0A0K8 whole entry): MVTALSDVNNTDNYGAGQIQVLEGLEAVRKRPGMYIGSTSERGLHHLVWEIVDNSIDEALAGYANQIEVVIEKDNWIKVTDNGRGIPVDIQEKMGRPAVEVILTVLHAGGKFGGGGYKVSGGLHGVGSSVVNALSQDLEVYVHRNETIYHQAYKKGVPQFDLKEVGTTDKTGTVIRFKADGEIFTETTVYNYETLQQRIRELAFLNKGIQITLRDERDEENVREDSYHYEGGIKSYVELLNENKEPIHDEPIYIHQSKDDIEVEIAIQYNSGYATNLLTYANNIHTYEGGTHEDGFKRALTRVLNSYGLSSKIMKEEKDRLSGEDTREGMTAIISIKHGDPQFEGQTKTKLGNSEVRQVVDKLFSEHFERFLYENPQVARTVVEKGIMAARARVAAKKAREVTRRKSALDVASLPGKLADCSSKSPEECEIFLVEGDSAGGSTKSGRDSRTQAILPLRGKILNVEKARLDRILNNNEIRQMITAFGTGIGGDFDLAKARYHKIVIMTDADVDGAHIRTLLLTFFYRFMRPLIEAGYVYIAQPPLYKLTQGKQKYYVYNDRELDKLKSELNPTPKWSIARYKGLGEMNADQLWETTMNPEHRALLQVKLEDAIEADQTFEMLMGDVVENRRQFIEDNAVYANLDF
Chain of S. aureus (SAU) GyrB ATPase (P0AES4 whole entry, further chain): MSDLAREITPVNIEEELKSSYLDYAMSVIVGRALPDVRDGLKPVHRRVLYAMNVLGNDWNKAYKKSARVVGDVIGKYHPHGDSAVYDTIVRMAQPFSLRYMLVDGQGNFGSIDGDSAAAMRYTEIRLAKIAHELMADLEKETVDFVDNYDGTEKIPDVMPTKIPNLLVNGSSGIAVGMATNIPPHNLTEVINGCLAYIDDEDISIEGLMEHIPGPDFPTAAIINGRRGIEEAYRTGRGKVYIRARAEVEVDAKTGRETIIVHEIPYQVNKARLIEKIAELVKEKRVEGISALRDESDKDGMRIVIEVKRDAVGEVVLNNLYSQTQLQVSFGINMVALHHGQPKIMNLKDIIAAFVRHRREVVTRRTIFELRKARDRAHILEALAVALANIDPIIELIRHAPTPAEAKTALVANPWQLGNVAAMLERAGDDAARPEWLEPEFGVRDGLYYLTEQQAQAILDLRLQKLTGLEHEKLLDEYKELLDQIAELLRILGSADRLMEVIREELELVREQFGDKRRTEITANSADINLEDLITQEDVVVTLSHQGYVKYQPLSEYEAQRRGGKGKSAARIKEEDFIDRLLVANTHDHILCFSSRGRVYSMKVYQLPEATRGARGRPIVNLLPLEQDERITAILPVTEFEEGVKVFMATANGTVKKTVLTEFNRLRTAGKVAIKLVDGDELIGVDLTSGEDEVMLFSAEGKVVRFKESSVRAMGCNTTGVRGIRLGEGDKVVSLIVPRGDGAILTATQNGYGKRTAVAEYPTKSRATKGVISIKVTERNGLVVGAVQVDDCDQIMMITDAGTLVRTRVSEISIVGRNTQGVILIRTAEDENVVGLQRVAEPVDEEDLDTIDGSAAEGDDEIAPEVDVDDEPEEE
On to `CCNC(=O)Nc1ccc(-c2nc(C(=O)NC3CC3)c(C(=O)NOC)s2)cn1` [Example 35, N^4-Cyclopropyl-2-(6-{[(ethylamino)carbonyl]amino}pyridin-3-yl)-N^5-methoxy-1,3-thiazole-4,5-dicarboxamide], for which the inhibition at 5 µM was found to be 96.7%.

The experiment is the same for the next values; noted with them: compound concentration 12.5 μM; 12.5 µM.
For the compound `CCNC(=O)Nc1ccc(-c2nc(-c3ncnn3C)c(C(=O)O)s2)cn1` [Example 90, 2-(6-{[(Ethylamino)carbonyl]amino}pyridin-3-yl)-4-(1-methyl-1H-1,2,4-triazol-5-yl)-1,3-thiazole-5-carboxylic acid], the “S. aureus (SAU) GyrB ATPase % Inhibition” value turned out to be 19.71%.

The experiment is the same for the next values; noted with them: read-out: S. aureus (SAU) GyrB ATPase % Inhibition, compound concentration 12.5 μM.
Turning to `CCCCNC(=O)c1nc(-c2ccc(NC(=O)NCC)nc2)sc1C(=O)O` [Example 26, 4-[(Butylamino)carbonyl]-2-(6-{[(ethylamino)carbonyl]amino}pyridin-3-yl)-1,3-thiazole-5-carboxylic acid], the inhibition at 12.5 µM amounted to 70.5%.
For `CCNC(=O)Nc1ccc(-c2nc(C(=O)NC(C)(C)C)c(C(=O)O)s2)cn1` [Example 94, 4-[(tert-Butylamino)carbonyl]-2-(6-{[(ethylamino)carbonyl]amino}pyridin-3-yl)-1,3-thiazole-5-carboxylic acid], the inhibition at 12.5 µM worked out at 98.9%.
For the compound `CCNC(=O)Nc1cccc(-c2cccc(C(N)=O)c2)n1` [Example 151, 3-(6-{[(ethylamino)carbonyl]amino}pyridin-2-yl)benzamide], the inhibition at 12.5 µM turned out to be 97.7%.
Turning to `CCNC(=O)Nc1ccc(-c2nc(-c3nccn3C)c(C(=O)O)s2)cn1` [Example 93, 2-(6-{[(Ethylamino)carbonyl]amino}pyridin-3-yl)-4-(1-methyl-1H-imidazol-2-yl)-1,3-thiazole-5-carboxylic acid], the inhibition at 12.5 µM amounted to 99.1%.
In the case of `CCNC(=O)Nc1cc(-c2nc(C(F)(F)F)cs2)c(-c2cncc(C(=O)O)c2)cn1` [Example 101, 6′-{[(Ethylamino)carbonyl]amino}-4′-[4-(trifluoromethyl)-1,3-thiazol-2-yl]-3,3′-bipyridine-5-carboxylic acid], the inhibition at 12.5 µM was 98.3%.
On to `CCNC(=O)Nc1ccc(-c2nc(-c3nccn3C)c(C(=O)N(C)C)s2)cn1` [Example 112, 2-(6-{[(Ethylamino)carbonyl]amino}pyridin-3-yl)-N,N-dimethyl-4-(1-methyl-1H-imidazol-2-yl)-1,3-thiazole-5-carboxamide], for which the inhibition at 12.5 µM was determined as 99.9%.
As for `CCCCNC(=O)c1nc(-c2ccc(NC(=O)NCC)nc2)sc1C(=O)NC` [Example 108, N^4-Butyl-2-(6-{[(ethylamino)carbonyl]amino}pyridin-3-yl)-N^5-methyl-1,3-thiazole-4,5-dicarboxamide], the inhibition at 12.5 µM was 100%.
As for `CCNC(=O)Nc1ccc(-c2nc(-c3nccn3CCOC)c(C(=O)OC)s2)cn1` [Example 71, Methyl 2-(6-{[(ethylamino)carbonyl]amino}pyridin-3-yl)-4-[1-(2-methoxyethyl)-1H-imidazol-2-yl]-1,3-thiazole-5-carboxylate], the inhibition at 12.5 µM turned out to be 93%.
Still for that read-out and setting: for `CCNC(=O)Nc1ccc(-c2nc(C(=O)N[C@@H](C)COC)c(C(=O)N(C)C)s2)cn1` [Example 118, 2-(6-{[(Ethylamino)carbonyl]amino}pyridin-3-yl)-N^4-[(1S)-2-methoxy-1-methylethyl]-N^5,N^5-dimethyl-1,3-thiazole-4,5-dicarboxamide] the value was 102%; for `CCNC(=O)Nc1ccc(-c2ccc(C(=O)O)cc2)cn1` [Example 23, 4-(6-{[(Ethylamino)carbonyl]amino}pyridin-3-yl)benzoic acid], 92.5%; for `CCNC(=O)Nc1ccc(-c2cccc(CC(=O)O)c2)cn1` [Example 146, [3-(6-{[(ethylamino)carbonyl]amino}pyridin-3-yl)phenyl]acetic acid], 64.3%.
Turning to `CCNC(=O)Nc1ccc(-c2nc(C(=O)N(C)C)c(C(=O)OCC)s2)cn1` [Example 140, ethyl 4-[(dimethylamino)carbonyl]-2-(6-{[(ethylamino)carbonyl]amino}pyridin-3-yl)-1,3-thiazole-5-carboxylate], the inhibition at 12.5 µM is 76.6%.
As to `CNC(=O)c1cncc(-c2cnc(NC(=O)NC(C)C)cc2-c2nc(C(F)(F)F)cs2)c1` [Example 129, 6′-{[(Isopropylamino)carbonyl]amino}-N-methyl-4′-[4-(trifluoromethyl)-1,3-thiazol-2-yl]-3,3′-bipyridine-5-carboxamide], the inhibition at 12.5 µM was 100%.
In the case of `CCNC(=O)Nc1ccc(-c2ncc(C(N)=O)s2)cn1` [Example 37, 2-(6-{[(Ethylamino)carbonyl]amino}pyridin-3-yl)-1,3-thiazole-5-carboxamide], the inhibition at 12.5 µM came out at 98.9%.
Turning to `CCNC(=O)Nc1ccc(-c2ccc3c(c2)c(=O)c(C(=O)O)cn3CC(F)F)cn1` [Example 49, 1-(2,2-difluoroethyl)-6-(6-(3-ethylureido)pyridin-3-yl)-4-oxo-1,4-dihydroquinoline-3-carboxylic acid], the inhibition at 12.5 µM stood at 37.8%.
With `CCNC(=O)Nc1ccc(-c2nc(C(=O)NCCOC)c(C(N)=O)s2)cn1` [Example 116, 2-(6-{[(Ethylamino)carbonyl]amino}pyridin-3-yl)-N^4-(2-methoxyethyl)-1,3-thiazole-4,5-dicarboxamide], the inhibition at 12.5 µM amounted to 98.7%.
On to `CCNC(=O)Nc1ccc(-c2nc3cccc(C(N)=O)c3s2)cn1` [Example 40, 2-(6-{[(Ethylamino)carbonyl]amino}pyridin-3-yl)-1,3-benzothiazole-7-carboxamide], for which the inhibition at 12.5 µM stood at 83.7%.
For `CCNC(=O)Nc1ccc(-c2c[nH]c(=O)c(C(=O)O)c2)cn1` [Example 51, 5-(6-(3-ELthylureido)pyridin-3-yl)-2-oxo-1,2-dihydropyridine-3-carboxylic acid], the inhibition at 12.5 µM is 62.1%.
`CCNC(=O)Nc1ccc(-c2ccc(C(=O)O)cn2)cn1` [Example 21, 6′-{[(Ethylamino)carbonyl]amino}-2,3′-bipyridine-5-carboxylic acid]: the inhibition at 12.5 µM was found to be 77.1%.
Take `CCNC(=O)Nc1cc(-c2nc(C(C)(C)C)cs2)c(-c2cncc(C(=O)O)c2)cn1` [Example 145, 4′-(4-tert-butyl-1,3-thiazol-2-yl)-6′-{[(ethylamino)carbonyl]amino}-3,3′-bipyridine-5-carboxylic acid]: the inhibition at 12.5 µM stood at 101%.
For `CCNC(=O)Nc1cc(-c2ccccc2)c(-c2ncc(C(=O)O)s2)cn1` [Example 97, 2-(6-{[(Ethylamino)carbonyl]amino}-4-phenylpyridin-3-yl)-1,3-thiazole-5-carboxylic acid], the inhibition at 12.5 µM is 101%.
The same measure, in the same setting: for `CCNC(=O)Nc1ccc(-c2ccc3nc(C)c(C(N)=O)n3c2)cn1` [Example 155, 6-(6-{[(ethylamino)carbonyl]amino}pyridin-3-yl)-2-methylimidazo[1,2-a]pyridine-3-carboxamide] the value was 82.3%; for `CCNC(=O)Nc1cc(-c2ccccc2)c(-c2cccc(C(=O)O)c2)cn1` [Example 96, 3-(6-{[(Ethylamino)carbonyl]amino}-4-phenylpyridin-3-yl)benzoic acid], 95.4%.

The test system of the next experiment is Streptococcus pneumoniae. Nature of the experiment: Bacterial susceptibility testing in liquid media (MIC). Particulars: 37° C., 24 hrs. The format is cell-based. As to the method:
Compounds were tested for antimicrobial activity by susceptibility testing in liquid media. Compounds were dissolved in dimethylsulfoxide and tested in 10 doubling dilutions in the susceptibility assays. The organisms used in the assay were grown overnight on suitable agar media and then suspended in a liquid medium appropriate for the growth of the organism. The suspension was a 0.5 McFarland and a further 1 in 10 dilution was made into the same liquid medium to prepare the final organism suspension in 100 μL. Plates were incubated under appropriate conditions at 37° C. for 24 hrs prior to reading. The Minimum Inhibitory Concentration was determined as the lowest drug concentration able to reduce growth by 80% or more.
For `CCCCNC(=O)c1nc(-c2ccc(NC(=O)NCC)nc2)sc1C(=O)O` [Example 26, 4-[(Butylamino)carbonyl]-2-(6-{[(ethylamino)carbonyl]amino}pyridin-3-yl)-1,3-thiazole-5-carboxylic acid], the “MIC (lowest concentration reducing growth by 80% or more)” value is 2.0 µg/mL (≈ 5.11 µM).
